This note sets out measurements from US20260297085A1, “1 H-PYRROLO[2,3-B]PYRIDIN-4-YL]-2-OXOPYRROLIDINE-3-CARBONITRILE DERIVATIVES AS TYROSINE KINASE 2 (TYK2) INHIBITORS FOR THE TREATMENT OF INFLAMMATORY DISEASES” (BIOGEN MA INC., priority 2023, published 2026).

Test [1] has as its target T1, human JAK1 kinase domain (JH1) (Homo sapiens, UniProt P23458).
T1 construct: recombinantly generated catalytic kinase (also known as JH1) domain of human JAK1, JAK2, JAK3 and TYK2
As to the kind of experiment: JH1 biochemical assay for JAK1 (ADP-Glo kinase assay, recombinant JH1 catalytic domain, JAK3-342 peptide, 35 μM ATP). The note with it: JAK1 JH1, ADP-Glo. The procedure, abridged:
(§1)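 Enzyme levels: JAK1 4 nM, JAK2 0.2 nM, JAK3 0.3 nM, TYK2 2 nM. Peptide substrate at 50 μM. Reactions ran 100 minutes; ADP formed was converted to luciferase luminescence after ATP depletion. Compounds tested from 10 μM or 1 μM top, 11-point 3-fold dilutions; IC50 from 4-parameter logistic fit of normalized percent activity.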

For test [2], the target named is T2, human TYK2 kinase domain (JH1) (Homo sapiens, UniProt P29597).
T2 construct: recombinantly generated catalytic kinase (also known as JH1) domain of human JAK1, JAK2, JAK3 and TYK2
T2 sequence (P29597 897-1176 limits assumed): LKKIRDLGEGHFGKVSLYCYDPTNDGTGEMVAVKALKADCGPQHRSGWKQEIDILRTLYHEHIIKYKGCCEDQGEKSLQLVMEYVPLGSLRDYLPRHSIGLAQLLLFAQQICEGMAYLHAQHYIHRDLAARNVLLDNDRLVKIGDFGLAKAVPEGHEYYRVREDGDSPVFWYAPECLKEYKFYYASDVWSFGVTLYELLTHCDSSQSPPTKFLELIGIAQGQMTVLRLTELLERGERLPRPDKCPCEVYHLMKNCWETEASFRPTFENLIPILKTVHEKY
As to the kind of experiment: JH1 biochemical assay for TYK2 (ADP-Glo kinase assay, recombinant JH1 catalytic domain, JAK3-974 peptide, 10 μM ATP). The note with it: TYK2 JH1, ADP-Glo. The procedure, abridged:
as §1
On the technique in general: ADP-Glo first removes unused ATP, then detects ADP through luciferase.

Test [3] addresses T3, human JAK3 kinase domain (JH1) (Homo sapiens, UniProt P52333).
T3 construct: recombinantly generated catalytic kinase (also known as JH1) domain of human JAK1, JAK2, JAK3 and TYK2
As to the kind of experiment: JH1 biochemical assay for JAK3 (ADP-Glo kinase assay, recombinant JH1 catalytic domain, JAK3-974 peptide, 4 μM ATP). The note with it: JAK3 JH1, ADP-Glo. The procedure, abridged: as §1

Test [4] concerns the target Tyk2 kinase activity on STAT4 in NK92 cells (Homo sapiens, UniProt P29597). Kind of test: pSTAT4 cell assay (MSD; NK92 cells, 30 ng/mL IL2 stimulation). The class given is cell-based. The note with it: 30 ng/mL IL2, 15 minutes. The procedure, abridged:
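Serum-starved NK92 cells, which natively express Tyk2 and STAT4, were pretreated for 1 h with a 10-point 4-fold dilution series from 10 μM. They were then stimulated with 30 ng/mL IL2 for 15 min. Phospho-STAT in lysates was quantified by MSD with anti-STAT4 antibodies, and IC50 was obtained from 4-parameter logistic fits.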

For test [5], the target named is JAK1 kinase activity on STAT3 in TF1 cells (Homo sapiens, UniProt P23458). Kind of test: pSTAT3 cell assay (MSD; TF1 cells, 30 ng/mL IL-6 stimulation). The class given is cell-based. The note with it: 30 ng/mL IL-6, 15 minutes. The procedure, abridged:
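Serum-starved TF1 cells were pretreated with compound for 1 hour (10-point, four-fold dilutions from 10 μM), then stimulated with IL-6 for 15 minutes. Lysates were assayed for pSTAT3 by MSD with anti-STAT3 antibodies; IC50 came from a 4-parameter logistic fit of normalized percent activity.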

Test [6] has as its target T4, human JAK2 kinase domain (JH1) (Homo sapiens, UniProt O60674).
T4 construct: recombinantly generated catalytic kinase (also known as JH1) domain of human JAK1, JAK2, JAK3 and TYK2
Kind of test: JH1 biochemical assay for JAK2 (ADP-Glo kinase assay, recombinant JH1 catalytic domain, JAK3-974 peptide, 15 μM ATP). The following applies: JAK2 JH1, ADP-Glo. The procedure, abridged:
as §1

Test [7] has as its target JAK2 kinase activity on STAT5 in TF1 cells (Homo sapiens, UniProt O60674). As to the kind of experiment: pSTAT5 cell assay (MSD; TF1 cells, 30 ng/mL IL-3 stimulation). The class given is cell-based. The note with it: 30 ng/mL IL-3, 15 minutes. The procedure, abridged:
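Serum-starved TF1 cells with native JAK2/STAT5 were pretreated 1 h with compound (10-point four-fold dilutions from 10 μM), then stimulated 15 min with 30 ng/mL IL-3. pSTAT5 in lysates quantified by MSD immunoassay; normalized percent activity fitted to a 4-parameter logistic curve for IC50.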

T1 sequence (P23458 875-1153 limits assumed): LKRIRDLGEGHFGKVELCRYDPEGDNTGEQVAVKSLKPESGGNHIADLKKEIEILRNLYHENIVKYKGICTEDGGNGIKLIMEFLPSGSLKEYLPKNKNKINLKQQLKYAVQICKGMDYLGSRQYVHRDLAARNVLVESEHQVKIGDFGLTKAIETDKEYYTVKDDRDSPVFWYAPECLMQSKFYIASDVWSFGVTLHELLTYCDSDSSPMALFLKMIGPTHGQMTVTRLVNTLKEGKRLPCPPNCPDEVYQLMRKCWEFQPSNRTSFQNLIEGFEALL
JAK2 kinase activity on STAT5 in TF1 cells, sequence (O60674 whole entry): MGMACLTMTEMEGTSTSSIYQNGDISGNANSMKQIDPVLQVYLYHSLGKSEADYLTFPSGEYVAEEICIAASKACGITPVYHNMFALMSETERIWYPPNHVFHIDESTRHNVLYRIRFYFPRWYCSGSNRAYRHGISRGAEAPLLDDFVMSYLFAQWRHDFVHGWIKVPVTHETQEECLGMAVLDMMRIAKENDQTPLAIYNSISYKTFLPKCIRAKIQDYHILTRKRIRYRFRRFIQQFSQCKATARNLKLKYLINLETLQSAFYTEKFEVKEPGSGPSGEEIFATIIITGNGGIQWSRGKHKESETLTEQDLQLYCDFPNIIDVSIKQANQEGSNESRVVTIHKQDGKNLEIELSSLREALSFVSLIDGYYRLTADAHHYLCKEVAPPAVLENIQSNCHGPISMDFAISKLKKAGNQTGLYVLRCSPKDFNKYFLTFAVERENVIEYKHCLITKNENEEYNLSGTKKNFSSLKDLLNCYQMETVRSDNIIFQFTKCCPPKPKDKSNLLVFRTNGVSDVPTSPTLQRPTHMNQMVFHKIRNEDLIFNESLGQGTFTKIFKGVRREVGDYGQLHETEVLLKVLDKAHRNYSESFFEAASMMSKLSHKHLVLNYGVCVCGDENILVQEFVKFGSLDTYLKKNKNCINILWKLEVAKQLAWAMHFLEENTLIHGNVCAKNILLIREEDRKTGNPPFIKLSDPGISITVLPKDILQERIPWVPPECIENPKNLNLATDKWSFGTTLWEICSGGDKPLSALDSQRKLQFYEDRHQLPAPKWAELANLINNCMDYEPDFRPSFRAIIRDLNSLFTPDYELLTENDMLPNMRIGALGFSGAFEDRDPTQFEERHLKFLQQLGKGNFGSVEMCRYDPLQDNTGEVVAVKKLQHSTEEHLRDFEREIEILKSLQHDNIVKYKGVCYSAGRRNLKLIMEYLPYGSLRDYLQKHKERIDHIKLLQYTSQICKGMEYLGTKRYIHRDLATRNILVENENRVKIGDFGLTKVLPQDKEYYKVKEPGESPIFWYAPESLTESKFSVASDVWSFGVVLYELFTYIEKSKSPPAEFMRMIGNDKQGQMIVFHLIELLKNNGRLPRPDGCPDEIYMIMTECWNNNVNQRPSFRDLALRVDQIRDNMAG
T3 sequence (P52333 822-1111 limits assumed): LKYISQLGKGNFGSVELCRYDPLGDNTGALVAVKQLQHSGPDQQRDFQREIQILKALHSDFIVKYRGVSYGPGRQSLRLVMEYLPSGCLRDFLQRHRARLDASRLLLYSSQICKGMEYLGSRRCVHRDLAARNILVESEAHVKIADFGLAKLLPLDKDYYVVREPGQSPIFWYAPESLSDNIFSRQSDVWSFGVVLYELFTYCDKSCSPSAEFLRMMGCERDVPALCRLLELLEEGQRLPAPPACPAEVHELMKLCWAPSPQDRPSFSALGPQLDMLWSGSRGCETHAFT
Tyk2 kinase activity on STAT4 in NK92 cells, sequence (P29597 whole entry): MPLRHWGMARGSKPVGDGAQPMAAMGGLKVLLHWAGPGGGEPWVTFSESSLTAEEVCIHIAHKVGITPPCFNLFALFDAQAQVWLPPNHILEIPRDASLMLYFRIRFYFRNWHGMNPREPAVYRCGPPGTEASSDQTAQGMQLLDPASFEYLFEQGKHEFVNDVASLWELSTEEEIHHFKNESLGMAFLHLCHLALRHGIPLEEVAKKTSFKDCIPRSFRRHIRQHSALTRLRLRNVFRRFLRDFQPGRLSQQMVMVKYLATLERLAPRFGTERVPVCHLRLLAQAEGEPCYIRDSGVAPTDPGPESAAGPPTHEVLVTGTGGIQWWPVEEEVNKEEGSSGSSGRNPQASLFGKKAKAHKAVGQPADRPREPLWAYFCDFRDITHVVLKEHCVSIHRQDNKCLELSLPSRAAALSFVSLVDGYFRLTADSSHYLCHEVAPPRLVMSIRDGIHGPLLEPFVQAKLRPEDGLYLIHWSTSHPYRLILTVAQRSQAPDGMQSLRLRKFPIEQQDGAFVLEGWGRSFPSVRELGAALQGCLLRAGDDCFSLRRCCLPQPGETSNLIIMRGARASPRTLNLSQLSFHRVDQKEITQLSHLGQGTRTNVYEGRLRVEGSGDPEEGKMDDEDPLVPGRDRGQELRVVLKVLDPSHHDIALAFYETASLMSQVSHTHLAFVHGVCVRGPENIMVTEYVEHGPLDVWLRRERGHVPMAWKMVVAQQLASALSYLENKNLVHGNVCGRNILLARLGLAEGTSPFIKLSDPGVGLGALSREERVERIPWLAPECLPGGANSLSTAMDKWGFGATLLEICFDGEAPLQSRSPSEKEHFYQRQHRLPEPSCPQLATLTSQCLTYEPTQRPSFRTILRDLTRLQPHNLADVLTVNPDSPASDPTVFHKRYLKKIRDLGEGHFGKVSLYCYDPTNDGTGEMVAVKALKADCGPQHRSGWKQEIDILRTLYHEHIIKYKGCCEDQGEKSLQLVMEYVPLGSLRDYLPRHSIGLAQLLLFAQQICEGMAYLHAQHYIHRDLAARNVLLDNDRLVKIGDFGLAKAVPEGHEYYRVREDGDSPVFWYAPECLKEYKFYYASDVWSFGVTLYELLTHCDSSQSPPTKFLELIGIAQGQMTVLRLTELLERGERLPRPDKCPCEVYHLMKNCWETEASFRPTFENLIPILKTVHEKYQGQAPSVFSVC
T4 sequence (O60674 849-1124 limits assumed): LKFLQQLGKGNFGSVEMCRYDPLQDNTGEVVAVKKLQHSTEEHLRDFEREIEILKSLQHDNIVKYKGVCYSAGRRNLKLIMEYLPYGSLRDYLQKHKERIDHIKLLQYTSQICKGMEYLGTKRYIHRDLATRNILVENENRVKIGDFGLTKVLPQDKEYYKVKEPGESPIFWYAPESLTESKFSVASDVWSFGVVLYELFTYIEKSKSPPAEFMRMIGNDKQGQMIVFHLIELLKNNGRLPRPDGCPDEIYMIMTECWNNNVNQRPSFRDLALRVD
JAK1 kinase activity on STAT3 in TF1 cells, sequence (P23458 whole entry): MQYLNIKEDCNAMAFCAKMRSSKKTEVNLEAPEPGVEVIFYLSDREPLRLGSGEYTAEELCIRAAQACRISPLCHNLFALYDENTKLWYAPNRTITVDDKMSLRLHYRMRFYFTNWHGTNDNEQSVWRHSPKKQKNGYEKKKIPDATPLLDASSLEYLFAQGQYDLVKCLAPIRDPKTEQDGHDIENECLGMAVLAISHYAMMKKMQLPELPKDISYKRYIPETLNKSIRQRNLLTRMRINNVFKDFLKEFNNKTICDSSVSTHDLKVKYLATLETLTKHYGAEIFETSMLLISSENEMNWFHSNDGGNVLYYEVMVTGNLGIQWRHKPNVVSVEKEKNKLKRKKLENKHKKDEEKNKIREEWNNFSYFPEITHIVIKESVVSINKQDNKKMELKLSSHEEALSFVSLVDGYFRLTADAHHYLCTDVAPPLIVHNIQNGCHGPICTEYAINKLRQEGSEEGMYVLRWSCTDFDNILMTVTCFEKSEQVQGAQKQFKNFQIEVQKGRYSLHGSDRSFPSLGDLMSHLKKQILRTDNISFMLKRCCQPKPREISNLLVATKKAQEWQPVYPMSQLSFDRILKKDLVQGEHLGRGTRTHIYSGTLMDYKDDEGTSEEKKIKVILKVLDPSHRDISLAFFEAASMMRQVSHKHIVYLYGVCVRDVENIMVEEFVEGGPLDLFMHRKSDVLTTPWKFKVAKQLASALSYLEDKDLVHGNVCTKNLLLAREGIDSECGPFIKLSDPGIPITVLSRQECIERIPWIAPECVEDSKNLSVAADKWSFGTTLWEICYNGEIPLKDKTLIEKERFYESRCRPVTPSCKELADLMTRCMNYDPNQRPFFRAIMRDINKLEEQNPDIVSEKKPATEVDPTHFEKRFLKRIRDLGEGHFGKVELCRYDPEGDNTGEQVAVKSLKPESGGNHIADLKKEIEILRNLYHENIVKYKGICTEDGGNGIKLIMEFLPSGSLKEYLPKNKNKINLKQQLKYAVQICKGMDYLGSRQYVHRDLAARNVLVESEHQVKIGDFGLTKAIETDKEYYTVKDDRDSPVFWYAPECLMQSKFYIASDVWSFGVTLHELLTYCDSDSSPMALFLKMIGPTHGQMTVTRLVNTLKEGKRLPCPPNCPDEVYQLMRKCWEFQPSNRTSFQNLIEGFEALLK

What is called IC50 is the concentration needed to halve the response being measured. As to `C[C@@H]1CN(c2nc(-c3cnn([C@H]4C[C@@](C)(O)C4)c3)cn3ncc(F)c23)C(=O)[C@]1(C#N)C1CC1` [Example 301, (3R,4S)-3-cyclopropyl-1-(3-fluoro-6-(1-((1s,3 S)-3-hydroxy-3-methylcyclobutyl)-1H-pyrazol-4-yl)pyrazolo[1,5-a]pyrazin-4-yl)-4-methyl-2-oxopyrrolidine-3-carbonitrile], the IC50 is under 100 nM in test [1]; under 5 nM in test [2]; under 100 nM in test [3]; 50 to 100 nM in test [4]; 100 to 1000 nM in test [5]; under 100 nM in test [6]. Also, in test [7], the IC50 was in the range of 100 to 1000 nM.

In the case of `C[C@@H]1CN(c2nc(-c3cnn(CC4(C#N)CC4)c3)cn3ncc(F)c23)C(=O)[C@]1(C#N)C1CC1` [Example 302, (3R,4S)-1-(6-(1-((1-cyanocyclopropyl)methyl)-1H-pyrazol-4-yl)-3-fluoropyrazolo[1,5-a]pyrazin-4-yl)-3-cyclopropyl-4-methyl-2-oxopyrrolidine-3-carbonitrile], the IC50 is under 100 nM in test [1]; under 5 nM in test [2]; under 100 nM in test [3]; 50 to 100 nM in test [4]; 100 to 1000 nM in test [5]; under 100 nM in test [6]. Further, the half-maximal inhibitory concentration (IC50) in test [7] fell in the range of 1000 to 5000 nM.

Consider `C[C@@H]1CN(c2nc(-c3cnn(CC4COC4)c3)cn3ncc(F)c23)C(=O)[C@]1(C#N)C1CC1` [Example 304, (3R,4S)-3-cyclopropyl-1-(3-fluoro-6-(1-(oxetan-3-ylmethyl)-1H-pyrazol-4-yl)pyrazolo[1,5-a]pyrazin-4-yl)-4-methyl-2-oxopyrrolidine-3-carbonitrile], for which the IC50 is under 100 nM in test [1]; under 5 nM in test [2]; under 100 nM in test [3]; 50 to 100 nM in test [4]; 100 to 1000 nM in test [5]; under 100 nM in test [6]. This molecule also gave a half-maximal inhibitory concentration (IC50) in test [7] of 1000 to 5000 nM.

With `C[C@@H]1CN(c2nc(-c3cnn([C@H]4C[C@@](C)(C#N)C4)c3)cn3ncc(F)c23)C(=O)[C@]1(C#N)C1CC1` [Example 307, (3R,4S)-1-(6-(1-((1s,3S)-3-cyano-3-methylcyclobutyl)-1H-pyrazol-4-yl)-3-fluoropyrazolo[1,5-a]pyrazin-4-yl)-3-cyclopropyl-4-methyl-2-oxopyrrolidine-3-carbonitrile], the IC50 in test [1] was under 100 nM; in test [2], under 5 nM; in test [3] it was under 100 nM; in test [4], 50 to 100 nM; in test [5] it was 100 to 1000 nM; in test [6], under 100 nM. The same molecule registered an IC50 in test [7] of 1000 to 5000 nM.

Consider `C[C@@H]1CN(c2nc(-c3cnn([C@H]4C[C@](C)(C#N)C4)c3)cn3ncc(F)c23)C(=O)[C@]1(C#N)C1CC1` [Example 308, (3R,4S)-1-(6-(1-((1r,3R)-3-cyano-3-methylcyclobutyl)-1H-pyrazol-4-yl)-3-fluoropyrazolo[1,5-a]pyrazin-4-yl)-3-cyclopropyl-4-methyl-2-oxopyrrolidine-3-carbonitrile], for which the IC50 was under 100 nM in test [1]; under 5 nM in test [2]; under 100 nM in test [3]; 50 to 100 nM in test [4]; 100 to 1000 nM in test [5]; under 100 nM in test [6]. In test [7], this molecule yielded a half-inhibitory concentration (IC50) of 100 to 1000 nM.

Turning to `C[C@@H]1CN(c2nc(-c3cnn([C@H]4C[C@@](F)(C#N)C4)c3)cn3ncc(F)c23)C(=O)[C@]1(C#N)C1CC1` [Example 309, (3R,4S)-1-(6-(1-((1r,3R)-3-cyano-3-fluorocyclobutyl)-1H-pyrazol-4-yl)-3-fluoropyrazolo[1,5-a]pyrazin-4-yl)-3-cyclopropyl-4-methyl-2-oxopyrrolidine-3-carbonitrile], the IC50 in test [1] is under 100 nM; in test [2] it was under 5 nM; in test [3] it was under 100 nM; in test [4], over 100 nM; in test [5] it was 5000 to 10000 nM; in test [6], under 100 nM. This molecule also yielded an IC50 in test [7] of 1000 to 5000 nM.

On to `C[C@@H]1CN(c2ccnn3cc(-c4cnn(C5CC6(C5)CN(C)C6)c4)cc23)C(=O)[C@]1(C#N)C1CC1` [Example 315, (3R,4S)-3-cyclopropyl-4-methyl-1-(6-(1-(2-methyl-2-azaspiro[3.3]heptan-6-yl)-1H-pyrazol-4-yl)pyrrolo[1,2-b]pyridazin-4-yl)-2-oxopyrrolidine-3-carbonitrile], for which the half-maximal inhibitory concentration (IC50) in test [1] is 100 to 1000 nM; in test [2], under 5 nM; in test [3], under 100 nM; in test [4], 50 to 100 nM; in test [5] it was 1000 to 5000 nM; in test [6], 100 to 1000 nM. The IC50 in test [7] lay in the range of 1000 to 5000 nM.

Turning to `C[C@@H]1CN(c2ccnn3cc(-c4cnn(C5CN(C)C5)c4)cc23)C(=O)[C@]1(C#N)C1CC1` [Example 316, (3R,4S)-3-cyclopropyl-4-methyl-1-(6-(1-(1-methylazetidin-3-yl)-1H-pyrazol-4-yl)pyrrolo[1,2-b]pyridazin-4-yl)-2-oxopyrrolidine-3-carbonitrile], the IC50 in test [1] is 100 to 1000 nM; in test [2], under 5 nM; in test [3], 100 to 1000 nM; in test [4], 50 to 100 nM; in test [5], 5000 to 10000 nM; in test [6] it was 100 to 1000 nM. Moreover, the IC50 in test [7] fell in the range of 5000 to 10000 nM.

Regarding `C[C@@H]1CN(c2ccnn3cc(-c4cnn(C5CC6(COC6)C5)c4)cc23)C(=O)[C@]1(C#N)C1CC1` [Example 319, (3R,4S)-1-(6-(1-(2-oxaspiro[3.3]heptan-6-yl)-1H-pyrazol-4-yl)pyrrolo[1,2-b]pyridazin-4-yl)-3-cyclopropyl-4-methyl-2-oxopyrrolidine-3-carbonitrile], the IC50 in test [1] is under 100 nM; in test [2], under 5 nM; in test [3] it was under 100 nM; in test [4] it was 20 to 50 nM; in test [5], 100 to 1000 nM; in test [6], under 100 nM. For the same molecule, in test [7], the 50% inhibitory concentration (IC50) was 100 to 1000 nM.

Consider `C[C@@H]1CN(c2ccnn3cc(-c4cnn(C56CC(C#N)(C5)C6)c4)cc23)C(=O)[C@]1(C#N)C1CC1` [Example 320, (3R,4S)-1-(6-(1-(3-cyanobicyclo[1.1.1]pentan-1-yl)-1H-pyrazol-4-yl)pyrrolo[1,2-b]pyridazin-4-yl)-3-cyclopropyl-4-methyl-2-oxopyrrolidine-3-carbonitrile], for which the IC50 was 100 to 1000 nM in test [1]; under 5 nM in test [2]; under 100 nM in test [3]; 50 to 100 nM in test [4]; 1000 to 5000 nM in test [5]; under 100 nM in test [6]. The IC50 in test [7] was 1000 to 5000 nM.

Turning to `C[C@@H]1CN(c2ccnn3cc(-c4cn(C5COC5)nc4F)cc23)C(=O)[C@]1(C#N)C1CC1` [Example 321, (3R,4S)-3-cyclopropyl-1-(6-(3-fluoro-1-(oxetan-3-yl)-1H-pyrazol-4-yl)pyrrolo[1,2-b]pyridazin-4-yl)-4-methyl-2-oxopyrrolidine-3-carbonitrile], the IC50 in test [1] was 100 to 1000 nM; in test [2], under 5 nM; in test [3] it was 100 to 1000 nM; in test [4], 50 to 100 nM; in test [5], 1000 to 5000 nM; in test [6], under 100 nM. In test [7], the IC50 lay within 1000 to 5000 nM.

For `C[C@@H]1CN(c2ccnn3cc(-c4cnn(C5(CC#N)CC5)c4)cc23)C(=O)[C@]1(C#N)C1CC1` [Example 323], the IC50 in test [1] is under 100 nM; in test [2] it was under 5 nM; in test [3], under 100 nM; in test [4], 50 to 100 nM; in test [5], 1000 to 5000 nM; in test [6], under 100 nM. In test [7], this molecule yielded a half-maximal inhibitory concentration (IC50) of 1000 to 5000 nM.

Take `C[C@@H]1CN(c2ccnn3cc(-c4cnn(CC5(C#N)CC5)c4)cc23)C(=O)[C@]1(C#N)C1CC1` [Example 324, (3R,4S)-1-(6-(1-((1-cyanocyclopropyl)methyl)-1H-pyrazol-4-yl)pyrrolo[1,2-b]pyridazin-4-yl)-3-cyclopropyl-4-methyl-2-oxopyrrolidine-3-carbonitrile]: the IC50 in test [1] is under 100 nM; in test [2], under 5 nM; in test [3], under 100 nM; in test [4] it was 50 to 100 nM; in test [5], 100 to 1000 nM; in test [6], under 100 nM. The IC50 in test [7] fell in the range of 100 to 1000 nM.
